Test results from patent publication US11123355B2, “Antiviral benzyl-amine phosphodiamide compounds” (Merck Sharp & Dohme Corp., priority 2016, dated 2021).
Read-outs that look alike come from different tables or passages of the source.

Test system: HIV-1 (H9/IIB strain)
Assay: Multiple Round HIV-1 Infection Assay (Viking Assay) in MT4-GFP cells
Assay type: cell-based
Conditions: inhibition of reproductive ratio R0
Experimental: Assessing antiviral potency in a Multiple Round HIV-1 Infection Assay (Viking Assay) The antiviral activity of the tenofovir prodrugs of the Examples herein was assessed in an assay that measures the rate of replication of HIV in cell culture, termed the Viking assay (VIral KINetics in Green cells) and performed as follows. HIV-1 replication was monitored using MT4-gag-GFP clone D3 (hereafter designated MT4-GFP), which are MT-4 cells modified to harbor a GFP reporter gene, the expression of which is dependent on the HIV-1 expressed proteins tat and rev. Productive infection of an MT4-GFP cell with HIV-1 results in GFP expression approximately 24 h post-infection. MT4-GFP cells were maintained at 37° C./5% CO2/90% relative humidity in RPMI 1640 supplemented with 10/o fetal bovine serum, 100 U/ml penicillin/streptomycin, and 400 μg/ml G418 to maintain the reporter gene. For infections, MT4-GFP cells were placed in the same medium lacking G418 and infected overnight with HIV-1 (H9/IIB strain) virus at an approximate multiplicity of infection of 0.01 in the same incubation conditions. Cells were then washed and re-suspended in either RPMI 1640 supplemented with 10% or 50% normal human serum (NHS) at 1.6×10^5 cells/mL (10% NHS or 50% NHS, respectively). Compound plates were prepared by dispensing compounds dissolved in DMSO into wells of 384 well poly-D-lysine-coated plates (0.2 μl/well) using an ECHO acoustic dispenser. Each compound was tested in a 10-point serial 3-fold dilution (typical final concentrations: 8.4 μM-0.42 nM). Controls included no inhibitor (DMSO only) and a combination of three antiviral agents (efavirenz, indinavir, an in-house integrase strand transfer inhibitor at final concentrations of 4 μM each). Cells were added (50 μL/well) to compound plates and the infected cells were maintained at 37° C./5% CO2/90% relative humidity.
Infected cells were quantified at two time points, ˜48 h and ˜72 h post-infection, by counting the number of green cells in each well using an Acumen eX3 scanner. The increase in the number of green cells over ˜24 h period gives the reproductive ratio, R0, which is typically 5-15 and has been shown experimentally to be in logarithmic phase (data not shown). Inhibition of R0 is calculated for each well, and IC50s determined by non-linear 4-parameter curve fitting.

[1] = MT4-GFP cells infected with HIV-1, 10% normal human serum, read-out: Viking, IC50 (10% NHS)
[2] = MT4-GFP cells infected with HIV-1, 50% normal human serum, read-out: Viking, IC50 (50% NHS)

Structure (SMILES)	IC50 [1]	IC50 [2]
CCCOC(=O)C(C)(C)N[P@@](=O)(CO[C@H](C)Cn1cnc2c(N)ncnc21)N[C@@H](C)c1cccc(F)c1 [Example 10B, propyl 2-(((R)-((((R)-1-(6-amino-9H-purin-9-yl)propan-2-yl)oxy)methyl)(((S)-1-(3-fluorophenyl)ethyl)amino)phosphoryl)ami-no)-2-methylpropanoate and propyl 2-(((S)-((((R)-1-(6-amino-9H-purin-9-yl)propan-2-yl)oxy)methyl)(((S)-1-(3-fluorophenyl)ethyl)amino)phosphoryl)ami-no)-2-methylpropanoate]	99 nM	490 nM
CCCOC(=O)C(C)(C)N[P@@](=O)(CO[C@H](C)Cn1cnc2c(N)ncnc21)N[C@@H](c1ccc(C#N)cc1)C(F)(F)F.CCCOC(=O)C(C)(C)N[P@](=O)(CO[C@H](C)Cn1cnc2c(N)ncnc21)N[C@@H](c1ccc(C#N)cc1)C(F)(F)F (mixture of isomers) [Example 24A, propyl 2-(((R)-((((R)-1-(6-amino-9H-purin-9-yl)propan-2-yl)oxy)methyl)(((S)-1-(4-cyanophenyl)-2,2,2-trifluoroethyl)amino)phosphoryl)amino)-2-methylpropanoate and propyl 2-(((S)-((((R)-1-(6-amino-9H-purin-9-yl)propan-2-yl)oxy)methyl)(((S)-1-(4-cyanophenyl)-2,2,2-trifluoroethyl)amino)phosphoryl)amino)-2-methylpropanoate]	6.3 nM	30 nM
CCCOC(=O)C(C)(C)N[P@@](=O)(CO[C@H](C)Cn1cnc2c(N)ncnc21)N[C@H](C)c1ccc(Cl)cc1C [Example 29A, propyl 2-(((R)-((((R)-1-(6-amino-9H-purin-9-yl)propan-2-yl)oxy)methyl)(((R)-1-(4-chloro-2-methylphenyl)ethyl)amino)phosphoryl)ami-no)-2-methylpropanoate and propyl 2-(((S)-((((R)-1-(6-amino-9H-purin-9-yl)propan-2-yl)oxy)methyl)(((R)-1-(4-chloro-2-methyphenyl)ethyl)amino)phosphoryl)ami-no)-2-methylpropanoate]	260 nM	2300 nM
CCCOC(=O)C(C)(C)N[P@@](=O)(CO[C@H](C)Cn1cnc2c(N)ncnc21)N[C@@H](c1cccc(OC)c1)C(F)(F)F [Example 28A, propyl 2-(((R)-((((R)-1-(6-amino-9H-purin-9-yl)propan-2-yl)oxy)methyl)(((S)-2,2,2-trifluoro-1-(3-methoxyphenyl)ethyl)amino)phosphoryl)a-mino)-2-methylpropanoate and propyl 2-(((S)-((((R)-1-(6-amino-9H-purin-9-yl)propan-2-yl)oxy)methyl)(((S)-2,2,2-trifluoro-1-(3-methoxyphenyl)ethyl)amino)phosphoryl)a-mino)-2-methylpropanoate]	29 nM	330 nM
CCCOC(=O)C(C)(C)N[P@@](=O)(CO[C@H](C)Cn1cnc2c(N)ncnc21)N[C@H](C)c1cccc(F)c1 [Example 9A, propyl 2-(((R)-((((R)-1-(6-amino-9H-purin-9-yl)propan-2-yl)oxy)methyl)(((R)-1-(3-fluorophenyl)ethyl)amino)phosphoryl)ami-no)-2-methylpropanoate and propyl 2-(((S)-((((R)-1-(6-amino-9H-purin-9-yl)propan-2-yl)oxy)methyl)(((R)-1-(3-fluorophenyl)ethyl)amino)phosphoryl)ami-no)-2-methylpropanoate]	89 nM	940 nM
CCCOC(=O)C(C)(C)NP(=O)(CO[C@H](C)Cn1cnc2c(N)ncnc21)N[C@H](C)c1ccc(OC(F)(F)F)cc1C (stereo partly drawn) [Example 21A, Propyl 2-(((R)-((((R)-1-(6-amino-9H-purin-9-yl)propan-2-yl)oxy)methyl)(((R)-1-(2-methyl-4-(trifluoromethoxy)phenyl)ethyl)amino)phos-phoryl)amino)-2-methylpropanoate and propyl 2-(((S)-((((R)-1-(6-amino-9H-purin-9-yl)propan-2-yl)oxy)methyl)(((R)-1-(2-methyl-4-(trifluoromethoxy)phenyl)ethyl)amino)phos-phoryl)amino)-2-methylpropanoate]	150 nM	800 nM
